From US8153817B2, “Synthesis of methyl nonactate derivatives” (Ohio University, priority 2006, dated 2012) come the findings set out here.

Values after ≈ are worked out from the molar mass of the structure shown. Where two headings read alike, the source gives them in different places.

This test relates to B. subtilis. Kind of test: MIC screen against B. subtilis. Conditions: Bacillus subtilis. In kind it is cell-based. Here is the method: In comparison ampicillin, which is an antibiotic in wide therapeutic use, has an MIC of 100 μM in this screen.
Where [1] appears, read: Table 1, selected triazoloamides, B. subtilis, read-out: MIC.

As a reminder, the MIC is the lowest concentration found to suppress growth. As to `C[C@H](C(=O)NCCc1ccccc1)[C@@H]1CC[C@H](C[C@@H](C)n2cc(-c3ccccc3)nn2)O1`, the MIC under setting [1] came out at 250 µM (≈ 108 µg/mL).
Same read-out and setting: the figure for `C[C@H](C(=O)Nc1ccccc1)[C@@H]1CC[C@H](C[C@@H](C)n2cc(CN3CCC(c4ccccc4)CC3)nn2)O1` is 500 µM (≈ 251 µg/mL); for `C[C@@H](C(=O)N(C)Cc1ccccc1)[C@H]1CC[C@@H](C[C@H](C)n2cc(CN3CCN(c4ccccc4)CC3)nn2)O1` it is 1000 µM (≈ 531 µg/mL); for `COc1ccc(CNC(=O)[C@@H](C)[C@@H]2CC[C@H](C[C@@H](C)n3cc(CN4CCC(c5ccccc5)CC4)nn3)O2)cc1` it is 1000 µM (≈ 546 µg/mL).
Same read-out and setting: the figure for `COc1ccc(NC(=O)[C@@H](C)[C@@H]2CC[C@H](C[C@@H](C)n3cc(-c4ccccc4)nn3)O2)cc1` is 1000 µM (≈ 435 µg/mL); for `C[C@H](C(=O)NC1CCCC1)[C@@H]1CC[C@H](C[C@@H](C)n2cc(CN3CCN(c4ccccc4)CC3)nn2)O1` it is 2000 µM (≈ 989 µg/mL); for `C[C@H](C(=O)N1CCOCC1)[C@@H]1CC[C@H](C[C@@H](C)n2cc(CN3CCN(c4ccccc4)CC3)nn2)O1` it is 2000 µM (≈ 993 µg/mL).
For the compound `C[C@H](C(=O)NC1CCCCC1)[C@@H]1CC[C@H](C[C@@H](C)n2cc(CN3CCN(c4ccccc4)CC3)nn2)O1`, under setting [1], the MIC came to 2000 µM (≈ 1020 µg/mL).
Turning to `C[C@H](C(=O)N(C)C)[C@@H]1CC[C@H](C[C@@H](C)n2cc(-c3ccccc3)nn2)O1`, the minimal inhibitory concentration (MIC) under setting [1] is 4000 µM (≈ 1430 µg/mL).
Turning to `C[C@H](C(=O)N1CCN(c2ccccc2)CC1)[C@@H]1CC[C@H](C[C@@H](C)n2cc(CN3CCN(c4ccccc4)CC3)nn2)O1`, the MIC under setting [1] stood at 4000 µM (≈ 2290 µg/mL).
Take `CC1(C)S[C@@H]2[C@H](NC(=O)[C@H](N)c3ccccc3)C(=O)N2[C@H]1C(=O)O` [ampicillin, reference compound]: the MIC (B. subtilis (gram positive), read-out: MIC against B. subtilis) was found to be 100 µM (≈ 34.9 µg/mL).
